According to ChEMBL document CHEMBL4622896, “Enzymatic biosynthesis and biological evaluation of novel 17-AAG glucoside as potential anti-cancer agents” (Bioorg Med Chem Lett, 2020):
≈ marks a conversion by molar mass, not a printed value. Calls of active or inactive are those of the source. No cut-off for these calls is given here.

What was measured:
[1] = Solubility of the compound in water; assay type: physicochemical
CNE2Z [2] = assay: Antiproliferative activity against human CNE2Z cells assessed as cell growth inhibition by MTT assay; assay type: functional, cell-based
SMMC-7721 = assay: Antiproliferative activity against human SMMC7721 cells assessed as cell growth inhibition by MTT assay; assay type: functional, cell-based
HepG2 = assay: Antiproliferative activity against human HepG2 cells assessed as cell growth inhibition by MTT assay; assay type: functional, cell-based
MDA-MB-231 = assay: Antiproliferative activity against human MDA-MB-231 cells assessed as cell growth inhibition by MTT assay; assay type: functional, cell-based
SW480 = assay: Antiproliferative activity against human SW480 cells assessed as cell growth inhibition by MTT assay; assay type: functional, cell-based
[3] = Toxicity in nude mouse xenografted with human CNE2Z cells assessed as effect on body weight at 5 mg/kg, ip administered for 19 days; assay type: organism-based; conditions: in vivo, 456 h
[4] = Solubility of the compound in water relative to 17-AAG; assay type: physicochemical; conditions: buffer
Heat shock protein HSP90 [5] = molecular target: T1, Heat shock protein HSP90 (Homo sapiens, UniProt P07900+P08238); assay: Inhibition of HSP90 ATPase activity (unknown origin) malachite-green phosphate assay; assay type: protein assay
Heat shock protein HSP90 [6] = molecular target: T1, Heat shock protein HSP90; assay: Inhibition of HSP90 in human CNE2Z cells assessed as downregulation of Akt expression at 10 to 40 uM by Western blot analysis; assay type: cell-based
Heat shock protein HSP90 [7] = molecular target: T1, Heat shock protein HSP90; assay: Inhibition of HSP90 in human CNE2Z cells assessed as downregulation of Her-2 expression at 10 to 40 uM by Western blot analysis; assay type: cell-based
Heat shock protein HSP90 [8] = molecular target: T1, Heat shock protein HSP90; assay: Inhibition of HSP90 in human CNE2Z cells assessed as downregulation of c-Raf expression at 10 to 40 uM by Western blot analysis; assay type: cell-based
Heat shock protein HSP90 [9] = molecular target: T1, Heat shock protein HSP90; assay: Inhibition of HSP90 in human CNE2Z cells assessed as downregulation of Bcl2 expression at 10 to 40 uM by Western blot analysis; assay type: cell-based
Heat shock protein HSP90 [10] = molecular target: T1, Heat shock protein HSP90; assay: Inhibition of HSP90 in human CNE2Z cells assessed as downregulation of HIF-1alpha expression at 10 to 40 uM by Western blot analysis; assay type: cell-based
CNE2Z [11] = assay: Antitumor activity against human CNE2Z cells xenografted in nude mouse assessed as reduction in tumor volume at 1 mg/kg, ip administered for 19 days relative to control; assay type: functional; conditions: 456 h
[12] = Toxicity in nude mouse xenografted with human CNE2Z cells assessed as effect on body weight at 1 mg/kg, ip administered for 19 days; assay type: organism-based; conditions: in vivo, 456 h
[13] = Toxicity in nude mouse xenografted with human CNE2Z cells assessed as effect on liver at 1 mg/kg, ip administered for 19 days by hematoxylin and eosin staining based assay; assay type: organism-based; conditions: in vivo, 456 h
[14] = Toxicity in nude mouse xenografted with human CNE2Z cells assessed as effect on lung at 1 mg/kg, ip administered for 19 days by hematoxylin and eosin staining based assay; assay type: organism-based; conditions: in vivo, 456 h
[15] = Toxicity in nude mouse xenografted with human CNE2Z cells assessed as effect on kidney at 1 mg/kg, ip administered for 19 days by hematoxylin and eosin staining based assay; assay type: organism-based; conditions: in vivo, 456 h

Row | solubility [1] | IC50 (SMMC-7721) | IC50 (HepG2) | IC50 (MDA-MB-231) | IC50 (SW480) | Ratio [4] | IC50 (Heat shock protein HSP90 [5]) | inhibition (Heat shock protein HSP90 [6]) | inhibition (Heat shock protein HSP90 [7]) | inhibition (Heat shock protein HSP90 [8]) | inhibition (Heat shock protein HSP90 [9]) | inhibition (Heat shock protein HSP90 [10]) | SMILES | IC50 (CNE2Z [2]) | Activity [3] | inhibition in vivo at 1 mg/kg (CNE2Z [11]) | Activity [12] | Activity [13] | Activity [14] | Activity [15]
1 | 63 µM (≈ 36.9 µg/mL) | 190 nM | 320 nM | 1790 nM | 280 nM |  |  |  |  |  |  |  | C=CCNC1=C2C[C@@H](C)C[C@H](OC)[C@H](O)[C@@H](C)/C=C(\C)[C@H](OC(N)=O)[C@@H](OC)/C=C\C=C(/C)C(=O)NC(=CC1=O)C2=O [TANESPIMYCIN] | 8410 nM | Non-Toxic |  |  |  |  | 
2 |  | 110 nM | 1740 nM | 620 nM | 510 nM |  |  |  |  |  |  |  | COC1=C2C[C@@H](C)C[C@H](OC)[C@H](O)[C@@H](C)/C=C(\C)[C@H](OC(N)=O)[C@@H](OC)/C=C\C=C(/C)C(=O)NC(=CC1=O)C2=O [GELDANAMYCIN] | 310 nM |  |  |  |  |  | 
3 | 661 µM (≈ 494 µg/mL) | 5260 nM | 6280 nM | 28500 nM | 6130 nM | 10.5 | > 100000 nM | Active | Active | Active | Active | Active | C=CCNC1=C2C[C@@H](C)C[C@H](OC)[C@H](O[C@@H]3O[C@H](CO)[C@@H](O)[C@H](O)[C@H]3O)[C@@H](C)/C=C(\C)[C@H](OC(N)=O)[C@@H](OC)/C=C\C=C(/C)C(=O)NC(=CC1=O)C2=O (stereo in doubt) | 9200 nM |  | 75.5% | Non-Toxic | Non-Toxic | Non-Toxic | Non-Toxic
